{"source": "patent US11266655B2", "about": "“Methods and compositions for treating urea cycle disorders” (Camp4 Therapeutics Corporation, priority 2019, dated 2022)", "key": {"[1]": {"test_system": "OTC", "test": "HSP90 or HSP70 inhibitors in primary human hepatocytes, OTC mRNA", "assay_type": "cell-based", "conditions": "hepatocytes from Donor B, normalized to B2M", "experimental": "(§1) Additional small molecules that inhibit HSP90 or HSP70 were tested in primary human hepatocytes as described in Example 2. HSP90 or HSP70 inhibitors were tested in triplicate at 0.3 μM and 3 μM. The results are shown as the fold change (mRNA FC) in the mRNA levels of OTC and CPS1 genes after treatment compared to an untreated control (DMSO) and the standard deviation (SD). In addition, a dose titration experiment was performed with selected HSP90 inhibitors. Hepatocytes were incubated with increasing concentrations of HSP90 inhibitors and the changes in OTC and CPS1 expression quantified as previously described.\n(§2) HSP90 and HSP70 inhibitors were compared to confirm the role of HSP90 in modulating OTC and CPS1 expression. Hepatocytes from Donor B were incubated with various HSP90 inhibitors or an HSP70 inhibitor, Pifithrin-μ, and then harvested for mRNA quantification. OTC and CPS1 mRNA levels were normalized to B2M."}, "[2]": {"test_system": "CPS1", "test": "RNA-seq of compound-treated primary human hepatocytes, CPS1 expression", "assay_type": "cell-based"}, "[3]": {"test_system": "CPS1", "test": "HSP90 or HSP70 inhibitors in primary human hepatocytes, CPS1 mRNA", "assay_type": "cell-based", "conditions": "hepatocytes from Donor B, normalized to B2M", "experimental": "as §1, §2"}, "[4]": {"test_system": "NAGS", "assay_type": "cell-based, human", "conditions": "primary human hepatocytes; for Fold change (Log 2) vs untreated, NAGS expression: RNA-seq (Table 6)"}, "[5]": {"test_system": "OTC", "test": "RNA-seq of compound-treated primary human hepatocytes, OTC expression", "assay_type": "cell-based", "conditions": "primary human hepatocytes, RNA-seq"}, "[6]": {"test_system": "ARG1", "test": "RNA-seq of compound-treated primary human hepatocytes, ARG1 expression", "assay_type": "cell-based"}, "[7]": {"test_system": "urea cycle genes", "test": "RNA-seq of primary human hepatocytes, compounds that modulate multiple urea cycle-related genes", "assay_type": "cell-based"}, "[8]": {"test_system": "OTC", "test": "OTC expression modulated by compounds, OTC/GeoMean of housekeeping genes, DMSO = 1 (Table 3A)", "assay_type": "cell-based, human", "conditions": "10 uM final concentration"}, "[9]": {"test_system": "SLC25A13", "test": "RNA-seq of compound-treated primary human hepatocytes, SLC25A13 expression", "assay_type": "cell-based", "conditions": "primary human hepatocytes, triplicate (Table 23, FIG. 15)"}, "[10]": {"test_system": "SLC25A15", "test": "RNA-seq of compound-treated primary human hepatocytes, SLC25A15 expression", "assay_type": "cell-based"}, "[11]": {"test_system": "ASS1", "test": "RNA-seq of compound-treated primary human hepatocytes, ASS1 expression", "assay_type": "cell-based"}, "[12]": {"test_system": "ASL", "test": "RNA-seq of compound-treated primary human hepatocytes, ASL expression", "assay_type": "cell-based"}, "[13]": {"test_system": "OTC", "test": "HSP90 inhibitor dose titration in hepatocytes of donors A and B, OTC mRNA normalized to B2M", "assay_type": "cell-based, human", "conditions": "18 hours", "experimental": "as §1\n(§3) Hepatocytes from two different donors (A and B) were incubated with the various concentrations of HSP90 inhibitors for 18 hours and harvested for mRNA analysis. OTC and CPS1 mRNA were normalized to house keeping gene B2M gene expression."}, "[14]": {"test_system": "CPS1", "test": "HSP90 inhibitor dose titration in hepatocytes of donors A and B, CPS1 mRNA normalized to B2M", "assay_type": "cell-based, human", "conditions": "18 hours", "experimental": "as §1, §3"}, "[15]": {"conditions": "primary human hepatocytes, RNA-seq"}, "[16]": {"conditions": "primary human hepatocytes, RNA-seq, urea cycle-related genes significantly increased (Table 10)"}}, "note": "Where “and” joins values, the source holds several entries; their conditions need not be identical. Equal values may be shown once. Where a name gives a salt, the structure may show the parent alone. Read-outs that look alike come from different tables or passages of the source."}
{"smiles": "CC1(C)CC(=O)c2c(C(F)(F)F)nn(-c3ccc(C(N)=O)c(N[C@H]4CC[C@H](OC(=O)CN)CC4)c3)c2C1", "note": "[PF-04929113]", "values": [{"measurement": "OTC Expression mRNA FC", "setting": "[1]; 0.3 uM", "result": 1.77}, {"measurement": "OTC Expression mRNA FC", "setting": "[1]; 3 uM", "result": 4.28}, {"measurement": "Relative CPS1 level vs Untreated (±Standard Deviation)", "setting": "[2]; 3 μM, primary human hepatocytes, triplicate (Table 19, FIG. 11)", "result": "1.38 ± 0.13"}, {"measurement": "CPS1 Expression mRNA FC", "setting": "[3]; 0.3 uM", "result": 1.62}, {"measurement": "CPS1 Expression mRNA FC", "setting": "[3]; 3 uM", "result": 2.09}]}
{"smiles": "NS(=O)(=O)C#Cc1ccccc1", "note": "[Pifithrin-μ]", "values": [{"measurement": "Fold change (Log 2) vs untreated, NAGS expression", "setting": "[4]", "result": 1.18, "unit": "Log 2"}, {"measurement": "OTC Expression mRNA FC", "setting": "[1]; 0.3 uM", "result": 1.20}, {"measurement": "OTC Expression mRNA FC", "setting": "[1]; 3 uM", "result": 1.29}, {"measurement": "OTC expression, Fold change (Log 2) vs untreated", "setting": "[5]", "result": 0.79, "unit": "Log 2"}, {"measurement": "Fold change (Log 2) vs untreated, ARG1 expression", "setting": "[6]; primary human hepatocytes, RNA-seq (Table 7)", "result": 1.87, "unit": "Log 2"}, {"measurement": "number of urea cycle genes whose expression was significantly up-regulated", "setting": "[7]; [15]", "result": "three"}, {"measurement": "Up-regulated Genes", "setting": "[7]; [16]", "result": "OTC, NAGS, ARG1"}, {"measurement": "CPS1 Expression mRNA FC", "setting": "[3]; 0.3 uM", "result": 0.98}, {"measurement": "CPS1 Expression mRNA FC", "setting": "[3]; 3 uM", "result": 1.05}]}
{"smiles": "CNC(=O)c1ccc(C)c(-n2c(C)cc(OCc3ccc(F)cc3F)c(Br)c2=O)c1", "note": "[PH-797804]", "values": [{"measurement": "Max Value (OTC/GeoMean of HKs; DMSO = 1)", "setting": "[8]", "result": 1.53}]}
{"smiles": "CCNC(=O)c1noc(-c2cc(C(C)C)c(O)cc2O)c1-c1ccc(CN2CCOCC2)cc1", "note": "[Luminespib]", "values": [{"measurement": "Relative SLC25A13 level vs Untreated (±Standard Deviation)", "setting": "[9]; 10 μM", "result": "1.55 ± 0.02"}, {"measurement": "Relative NAGS level vs Untreated (±Standard Deviation)", "setting": "[4]; 1 μM, triplicate (Table 21, FIG. 13)", "result": "1.32 ± 0.30"}, {"measurement": "OTC Expression mRNA FC", "setting": "[1]; 0.3 uM", "result": 0.81}, {"measurement": "OTC Expression mRNA FC", "setting": "[1]; 3 uM", "result": 3.07}, {"measurement": "Relative ARGI level vs Untreated (±Standard Deviation)", "setting": "[6]; 10 μM, primary human hepatocytes, triplicate (Table 17, FIG. 9)", "result": "1.34 ± 0.07"}, {"measurement": "Relative SLC25A15 level vs Untreated (±Standard Deviation)", "setting": "[10]; 3 μM, primary human hepatocytes, triplicate (Table 24, FIG. 16A-B)", "result": "1.32 ± 0.24"}, {"measurement": "Relative SLC25A15 level vs Untreated (±Standard Deviation)", "setting": "[10]; 10 μM, primary human hepatocytes, triplicate (Table 24, FIG. 16A-B)", "result": "1.55 ± 0.02 and 1.82 ± 0.08"}, {"measurement": "CPS1 Expression mRNA FC", "setting": "[3]; 0.3 uM", "result": 0.86}, {"measurement": "CPS1 Expression mRNA FC", "setting": "[3]; 3 uM", "result": 1.39}]}
{"smiles": "CSCC[C@H](N)C(=O)N[C@@]1(C(=O)O)CS(=O)(=O)[C@H]2[C@H](C(=O)O)[C@H]21", "note": "[pomaglumetad methionil]", "values": [{"measurement": "Max Value (OTC/GeoMean of HKs; DMSO = 1)", "setting": "[8]", "result": 1.49}]}
{"smiles": "CNC[C@H](O)c1ccc(O)c(O)c1", "note": "[Epinephrine]", "values": [{"measurement": "Fold change (Log 2) vs untreated, ARG1 expression", "setting": "[6]", "result": 2.28, "unit": "Log 2"}, {"measurement": "Up-regulated Genes", "setting": "[7]", "result": "CPS1, ASS1, ASL, ARG1, SLC25A15"}, {"measurement": "number of urea cycle genes whose expression was significantly up-regulated", "setting": "[7]", "result": "five"}, {"measurement": "Fold change (Log 2) vs untreated, SLC25A15 expression", "setting": "[10]", "result": 1.14, "unit": "Log 2"}, {"measurement": "Fold change (Log 2) vs untreated, ASS1 expression", "setting": "[11]", "result": 1.08, "unit": "Log 2"}, {"measurement": "CPS1 expression, Fold change (Log 2) vs untreated", "setting": "[2]", "result": 4.85, "unit": "Log 2"}, {"measurement": "ASL expression, Fold change (Log 2) vs untreated", "setting": "[12]", "result": 0.6, "unit": "Log 2"}]}
{"smiles": "COc1cccc2c1C(=O)c1c(O)c3c(c(O)c1C2=O)C[C@@](O)(/C(CO)=N/NC(=O)CCCCCN1C(=O)C=CC1=O)C[C@@H]3O[C@H]1C[C@H](N)[C@H](O)[C@H](C)O1", "note": "[INNO-206 (aldoxorubicin), aldoxorubicin]", "values": [{"measurement": "Fold change (Log 2) vs untreated, NAGS expression", "setting": "[4]", "result": 1.63, "unit": "Log 2"}, {"measurement": "OTC expression, Fold change (Log 2) vs untreated", "setting": "[5]", "result": 0.87, "unit": "Log 2"}, {"measurement": "number of urea cycle genes whose expression was significantly up-regulated", "setting": "[7]; [15]", "result": "three"}, {"measurement": "Up-regulated Genes", "setting": "[7]; [16]", "result": "NAGS, ASS1, OTC"}, {"measurement": "Fold change (Log 2) vs untreated, ASS1 expression", "setting": "[11]; primary human hepatocytes, RNA-seq (Table 4)", "result": 0.58, "unit": "Log 2"}, {"measurement": "Max Value (OTC/GeoMean of HKs; DMSO = 1)", "setting": "[8]", "result": 2.36}]}
{"smiles": "C=CCNc1c(O)cc2c(O)c1C[C@@H](C)C[C@H](OC)[C@H](O)[C@@H](C)/C=C(\\C)[C@H](OC(N)=O)[C@@H](OC)/C=C\\C=C(/C)C(=O)N2", "note": "[Retaspimycin Hydrochloride]", "values": [{"measurement": "Relative SLC25A13 level vs Untreated (±Standard Deviation)", "setting": "[9]; 0.3 μM", "result": "1.35 ± 0.27"}, {"measurement": "Relative SLC25A13 level vs Untreated (±Standard Deviation)", "setting": "[9]; 1 μM", "result": "1.31 ± 0.08"}, {"measurement": "Relative SLC25A13 level vs Untreated (±Standard Deviation)", "setting": "[9]; 3 μM", "result": "1.54 ± 0.17"}, {"measurement": "Relative SLC25A13 level vs Untreated (±Standard Deviation)", "setting": "[9]; 10 μM", "result": "1.45 ± 0.01"}, {"measurement": "OTC Expression mRNA FC", "setting": "[1]; 0.3 uM", "result": 2.98}, {"measurement": "OTC Expression mRNA FC", "setting": "[1]; 3 uM", "result": 2.53}, {"measurement": "OTC mRNA FC, Donor A", "setting": "[13]; 0.01 uM", "result": 1.40}, {"measurement": "OTC mRNA FC, Donor B", "setting": "[13]; 0.01 uM", "result": 1.31}, {"measurement": "OTC mRNA FC, Donor A", "setting": "[13]; 0.03 uM", "result": 5.91}, {"measurement": "OTC mRNA FC, Donor B", "setting": "[13]; 0.03 uM", "result": 1.78}, {"measurement": "OTC mRNA FC, Donor A", "setting": "[13]; 0.1 uM", "result": 9.07}, {"measurement": "OTC mRNA FC, Donor B", "setting": "[13]; 0.1 uM", "result": 5.18}, {"measurement": "Relative ARGI level vs Untreated (±Standard Deviation)", "setting": "[6]", "result": "1.31 ± 0.12"}, {"measurement": "Relative SLC25A15 level vs Untreated (±Standard Deviation)", "setting": "[10]; Hydrochloride", "result": "1.35 ± 0.27 and 1.31 ± 0.08 and 1.54 ± 0.17 and 1.45 ± 0.01 and 1.60 ± 0.25 and 1.67 ± 0.17 and 1.93 ± 0.13 and 1.77 ± 0.11"}, {"measurement": "CPS1 mRNA FC, Donor A", "setting": "[14]; 0.01 uM", "result": 1.54}, {"measurement": "CPS1 mRNA FC, Donor B", "setting": "[14]; 0.01 uM", "result": 1.29}, {"measurement": "CPS1 mRNA FC, Donor A", "setting": "[14]; 0.03 uM", "result": 3.17}, {"measurement": "CPS1 mRNA FC, Donor B", "setting": "[14]; 0.03 uM", "result": 1.67}, {"measurement": "CPS1 mRNA FC, Donor A", "setting": "[14]; 0.1 uM", "result": 3.76}, {"measurement": "CPS1 mRNA FC, Donor B", "setting": "[14]; 0.1 uM", "result": 2.57}, {"measurement": "Relative ASS1 level vs Untreated (±Standard Deviation)", "setting": "[11]", "result": "1.38 ± 0.13"}, {"measurement": "CPS1 Expression mRNA FC", "setting": "[3]; 0.3 uM", "result": 1.23}, {"measurement": "CPS1 Expression mRNA FC", "setting": "[3]; 3 uM", "result": 2.24}]}
